# Laboratory results published in US12122833B2, “Combination therapies of HDAC inhibitors and PD-1 inhibitors” (HUYABIO International, LLC, priority 2016, dated 2024).
# Tested on: MC38 murine colon carcinoma cells
# Experiment: Example 2: tumor growth delay, MC38 tumors (5×10^5 cells) in C57BL/6 mice
# Format: in vivo, mouse
# Conditions: HBI-8000 50 mg/kg p.o. qd×21, anti-PD-1 5 mg/kg i.p. biwk×3
# Description: Animals that exited the study for tumor volume endpoint were documented as euthanized for tumor progression (TP), with the date of euthanasia. The time to endpoint (TTE) for analysis was calculated for each mouse by the following equation:
# [formula] where TTE is expressed in days, endpoint volume is expressed in mm^3, b is the intercept, and m is the slope of the line obtained by linear regression of a log-transformed tumor growth data set. The data set consisted of the first observation that exceeded the endpoint volume used in analysis and the three consecutive observations that immediately preceded the attainment of this endpoint volume. The calculated TTE is usually less than the TP date, the day on which the animal was euthanized for tumor burden. […] In instances in which the log-transformed calculated TTE preceded the day prior to reaching endpoint or exceeded the day of reaching tumor volume endpoint, a linear interpolation was performed to approximate the TTE. […]
# Treatment Outcome: Treatment outcome was evaluated from tumor growth delay (TGD), which is defined as the increase in the median time to endpoint (TTE) in a treatment group compared to the control group: TGD=T−C expressed in days, or as a percentage of the median TTE of the control group: […]
# Treatment Efficacy: Treatment efficacy may be determined from the tumor volumes of animals remaining in the study on the last day. […]
smiles,measurement,setting,value
"Nc1cc(F)ccc1NC(=O)c1ccc(CNC(=O)/C=C/c2cccnc2)cc1 [HBI-8000, N-(2-amino-4-fluorophenyl)-4-[[[(2E)-1-oxo-3-(3-pyridinyl)-2-propen-1-yl]amino]methyl]benz amide]",Median TTE,"endpoint 1000 mm^3 or Day 50, n=10",19.4 days
same,% TGD,vs vehicle,19%
